# From the supplement of paper PMC10307832
# What was measured:
# Assay in all cases: relative viability (nuclei count vs DMSO), 5 days (fraction); higher = more cells survive
# NCI-H1666 = tested on: NCI-H1666
# Summary of the method: (§1)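 Relative viability divides the nuclei count in treated wells by that in vehicle wells. Lung cancer cell lines were seeded in 1536-well plates, dosed by pin tool the next day, and fixed and stained after 5 days in one step with final 0.05% Triton X-100, 1% formaldehyde and 1 ug/ml Hoechst. Dosing was a single drug or a fixed anchor-drug dose plus five library-drug doses (not always all listed) in √10 steps, and values are medians of duplicate plates imaged at 4×.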
# NCI-H2347 = tested on: NCI-H2347
# Summary of the method: as §1
# NCI-H650 = tested on: NCI-H650
# Summary of the method: as §1
# NCI-H661 = tested on: NCI-H661
# Summary of the method: as §1
# LCLC-97TM1 = tested on: LCLC-97TM1
# Summary of the method: as §1
# HCC-827 = tested on: HCC-827
# Summary of the method: as §1
# COR-L 105 = tested on: COR-L 105
# Summary of the method: as §1
# 201T = tested on: 201T
# Summary of the method: as §1
# NCI-H2126 = tested on: NCI-H2126
# Summary of the method: as §1
# NCI-H2087 = tested on: NCI-H2087
# Summary of the method: as §1
# NCI-H520 = tested on: NCI-H520
# Summary of the method: as §1
# ChaGo-K-1 = tested on: ChaGo-K-1
# Summary of the method: as §1
# LC-2-ad = tested on: LC-2-ad
# Summary of the method: as §1
# H3255 = tested on: H3255
# Summary of the method: as §1
# NCI-H2405 = tested on: NCI-H2405
# Summary of the method: as §1
# PC-14 = tested on: PC-14
# Summary of the method: as §1
# NCI-H647 = tested on: NCI-H647
# Summary of the method: as §1
# EPLC-272H = tested on: EPLC-272H
# Summary of the method: as §1
# NCI-H23 = tested on: NCI-H23
# Summary of the method: as §1
# RERF-LC-KJ = tested on: RERF-LC-KJ
# Summary of the method: as §1
# HCC-78 = tested on: HCC-78
# Summary of the method: as §1
# NCI-H1915 = tested on: NCI-H1915
# Summary of the method: as §1
structure (smiles),measurement,setting,value
Nc1ccn([C@@H]2O[C@H](CO)[C@@H](O)[C@@H]2O)c(=O)n1 [Cytarabine] + Cc1nc(Nc2ncc(C(=O)Nc3c(C)cccc3Cl)s2)cc(N2CCN(CCO)CC2)n1 [Dasatinib] (partner 0.075 µM),relative viability,NCI-H1666; first compound 0.005 µM,0.773
same,relative viability,NCI-H1666; first compound 0.01581 µM,0.725
same,relative viability,NCI-H1666; first compound 0.05 µM,0.642
same,relative viability,NCI-H1666; first compound 0.1581 µM,0.396
same,relative viability,NCI-H1666; first compound 0.5 µM,0.394
same,relative viability,NCI-H2347; first compound 0.005 µM,0.321
same,relative viability,NCI-H2347; first compound 0.01581 µM,0.307
same,relative viability,NCI-H2347; first compound 0.05 µM,0.241
same,relative viability,NCI-H2347; first compound 0.1581 µM,0.274
same,relative viability,NCI-H2347; first compound 0.5 µM,0.201
same,relative viability,NCI-H650; first compound 0.005 µM,0.474
same,relative viability,NCI-H650; first compound 0.01581 µM,0.399
same,relative viability,NCI-H650; first compound 0.05 µM,0.257
same,relative viability,NCI-H650; first compound 0.1581 µM,0.213
same,relative viability,NCI-H650; first compound 0.5 µM,0.165
same,relative viability,NCI-H661; first compound 0.005 µM,0.636
same,relative viability,NCI-H661; first compound 0.01581 µM,0.529
same,relative viability,NCI-H661; first compound 0.05 µM,0.516
same,relative viability,NCI-H661; first compound 0.1581 µM,0.358
same,relative viability,NCI-H661; first compound 0.5 µM,0.283
same,relative viability,LCLC-97TM1; first compound 0.005 µM,0.795
same,relative viability,LCLC-97TM1; first compound 0.01581 µM,0.839
same,relative viability,LCLC-97TM1; first compound 0.05 µM,0.798
same,relative viability,LCLC-97TM1; first compound 0.1581 µM,0.227
same,relative viability,LCLC-97TM1; first compound 0.5 µM,0.264
same,relative viability,HCC-827; first compound 0.005 µM,0.445
same,relative viability,HCC-827; first compound 0.01581 µM,0.397
same,relative viability,HCC-827; first compound 0.05 µM,0.4
same,relative viability,HCC-827; first compound 0.1581 µM,0.226
same,relative viability,HCC-827; first compound 0.5 µM,0.227
same,relative viability,COR-L 105; first compound 0.005 µM,0.314
same,relative viability,COR-L 105; first compound 0.01581 µM,0.311
same,relative viability,COR-L 105; first compound 0.05 µM,0.293
same,relative viability,COR-L 105; first compound 0.1581 µM,0.196
same,relative viability,COR-L 105; first compound 0.5 µM,0.187
same,relative viability,201T; first compound 0.005 µM,0.659
same,relative viability,201T; first compound 0.01581 µM,0.642
same,relative viability,201T; first compound 0.05 µM,0.709
same,relative viability,201T; first compound 0.1581 µM,0.444
same,relative viability,201T; first compound 0.5 µM,0.501
same,relative viability,NCI-H2126; first compound 0.005 µM,0.516
same,relative viability,NCI-H2126; first compound 0.01581 µM,0.55
same,relative viability,NCI-H2126; first compound 0.05 µM,0.429
same,relative viability,NCI-H2126; first compound 0.1581 µM,0.378
same,relative viability,NCI-H2126; first compound 0.5 µM,0.32
same,relative viability,NCI-H2087; first compound 0.005 µM,0.747
same,relative viability,NCI-H2087; first compound 0.01581 µM,0.712
same,relative viability,NCI-H2087; first compound 0.05 µM,0.82
same,relative viability,NCI-H2087; first compound 0.1581 µM,0.265
same,relative viability,NCI-H2087; first compound 0.5 µM,0.233
same,relative viability,NCI-H520; first compound 0.005 µM,0.218
same,relative viability,NCI-H520; first compound 0.01581 µM,0.199
same,relative viability,NCI-H520; first compound 0.05 µM,0.263
same,relative viability,NCI-H520; first compound 0.1581 µM,0.187
same,relative viability,NCI-H520; first compound 0.5 µM,0.142
same,relative viability,ChaGo-K-1; first compound 0.005 µM,0.518
same,relative viability,ChaGo-K-1; first compound 0.01581 µM,0.347
same,relative viability,ChaGo-K-1; first compound 0.05 µM,0.384
same,relative viability,ChaGo-K-1; first compound 0.1581 µM,0.182
same,relative viability,ChaGo-K-1; first compound 0.5 µM,0.184
same,relative viability,LC-2-ad; first compound 0.005 µM,0.358
same,relative viability,LC-2-ad; first compound 0.01581 µM,0.308
same,relative viability,LC-2-ad; first compound 0.05 µM,0.347
same,relative viability,LC-2-ad; first compound 0.1581 µM,0.225
same,relative viability,LC-2-ad; first compound 0.5 µM,0.214
same,relative viability,H3255; first compound 0.005 µM,0.363
same,relative viability,H3255; first compound 0.01581 µM,0.3
same,relative viability,H3255; first compound 0.05 µM,0.273
same,relative viability,H3255; first compound 0.1581 µM,0.199
same,relative viability,H3255; first compound 0.5 µM,0.319
same,relative viability,NCI-H2405; first compound 0.005 µM,0.206
same,relative viability,NCI-H2405; first compound 0.01581 µM,0.17
same,relative viability,NCI-H2405; first compound 0.05 µM,0.167
same,relative viability,NCI-H2405; first compound 0.1581 µM,0.144
same,relative viability,NCI-H2405; first compound 0.5 µM,0.146
same,relative viability,PC-14; first compound 0.005 µM,0.232
same,relative viability,PC-14; first compound 0.01581 µM,0.234
same,relative viability,PC-14; first compound 0.05 µM,0.18
same,relative viability,PC-14; first compound 0.1581 µM,0.0381
same,relative viability,PC-14; first compound 0.5 µM,0.0648
same,relative viability,NCI-H647; first compound 0.005 µM,0.104
same,relative viability,NCI-H647; first compound 0.01581 µM,0.0553
same,relative viability,NCI-H647; first compound 0.05 µM,0.0872
same,relative viability,NCI-H647; first compound 0.1581 µM,0.0307
same,relative viability,NCI-H647; first compound 0.5 µM,0.0339
same,relative viability,EPLC-272H; first compound 0.005 µM,0.304
same,relative viability,EPLC-272H; first compound 0.01581 µM,0.241
same,relative viability,EPLC-272H; first compound 0.05 µM,0.211
same,relative viability,EPLC-272H; first compound 0.1581 µM,0.113
same,relative viability,EPLC-272H; first compound 0.5 µM,0.0979
same,relative viability,NCI-H23; first compound 0.005 µM,0.864
same,relative viability,NCI-H23; first compound 0.01581 µM,0.541
same,relative viability,NCI-H23; first compound 0.05 µM,0.655
same,relative viability,NCI-H23; first compound 0.1581 µM,0.236
same,relative viability,NCI-H23; first compound 0.5 µM,0.187
same,relative viability,RERF-LC-KJ; first compound 0.005 µM,0.689
same,relative viability,RERF-LC-KJ; first compound 0.01581 µM,0.646
same,relative viability,RERF-LC-KJ; first compound 0.05 µM,0.524
same,relative viability,RERF-LC-KJ; first compound 0.1581 µM,0.409
same,relative viability,RERF-LC-KJ; first compound 0.5 µM,0.281
same,relative viability,HCC-78; first compound 0.005 µM,0.585
same,relative viability,HCC-78; first compound 0.01581 µM,0.363
same,relative viability,HCC-78; first compound 0.05 µM,0.27
same,relative viability,HCC-78; first compound 0.1581 µM,0.228
same,relative viability,HCC-78; first compound 0.5 µM,0.208
same,relative viability,NCI-H1915; first compound 0.005 µM,0.366
same,relative viability,NCI-H1915; first compound 0.01581 µM,0.29
same,relative viability,NCI-H1915; first compound 0.05 µM,0.273
same,relative viability,NCI-H1915; first compound 0.1581 µM,0.183
same,relative viability,NCI-H1915; first compound 0.5 µM,0.181
